Values of other authors as cited in patent US8278351B2, “Natural marine source phospholipids comprising polyunsaturated fatty acids and their applications” (priority 2001, dated 2012).

Legend:
depression = conditions: 12 grams daily; placebo 0.6+/−10
Alzheimer's Disease [1] = test system: Alzheimer's Disease
panic disorder = conditions: four weeks
[2] = test system: Obsessive Compulsive Disorder; conditions: week six, compared to placebo period
[3] = high-dose inositol
[4] = test system: breast, ovarian, and lung cancer cells, mesothelioma cells
cancer cells = conditions: in vitro
memory impairment = conditions: 300 mg. daily, three months
cognitive decline = conditions: 300 mg. per day for six months, versus placebo
Alzheimer's Disease [5] = conditions: 300 mg. per day for six weeks, 35 patients
[6] = test system: mitochondrial membrane potentials; conditions: experimental group, peripheral blood
mitochondrial DNA = conditions: treated group versus control; brain and cochlea

O[C@H]1[C@H](O)[C@@H](O)[C@H](O)[C@@H](O)[C@H]1O [inositol]
improvement in depression as ranked by the Hamilton Depression Rating Scale (depression): 33.4+/−6
CAMCOG subscales language and orientation (Alzheimer's Disease [1]; only two of the eight subscales): significant improvement
total CAMCOG score after inositol (Alzheimer's Disease [1]; six grams inositol daily, four weeks): 40.09+/−24.54
total CAMCOG score, baseline (Alzheimer's Disease [1]; six grams inositol daily, baseline): 31.36+/−20.90
frequency and severity of panic attacks and severity of agoraphobia (panic disorder; versus placebo): declined significantly more after inositol than after placebo
panic attacks after treatment (panic disorder; decrease from 10 attacks per week, placebo 10 to 6): 3 per week
improvement in OCD [2]: significant improvement
increase of CSF levels of inositol [3]: ≤ 70%

Phosphatidylcholine
difference in sensitivity between normal and tumor cells [4]: ≤ 5 fold
dosage tolerated by normal cells relative to leukemic cells (HL60 leukemic cells; 24 hours incubation): 4 times
inhibition of HL60 leukemic cells (HL60 leukemic cells; versus normal human marrow cells): inhibit HL60 leukemic cells at a dosage that has no effect on normal human marrow cells
cytotoxicity to cancer cells (cancer cells): selectively cytotoxic

Phosphatidylserine [PS]
mental gain (memory impairment): 12 years
memory and learning (cognitive decline): significantly improved
improvement in Alzheimer's patients (Alzheimer's Disease [5]): significant improvement

Polyunsaturated phosphatidylcholine
mean fluorescence intensity (MFI), beginning of the study ([6]; beginning of the study): 3165
mean fluorescence intensity (MFI), end of the study ([6]; end of the study (six months)): 2990
mitochondrial DNA damage (mitochondrial DNA): less mitochondrial DNA damage
preservation of hearing at all frequencies (3, 6, 9, 12 and 18 kHz) (age-related hearing loss; 300 mg/kg/day oral diet, four and six months of treatment): statistically significant preservation of hearing
overall effect on decline in hearing (age-related hearing loss; 300 mg/kg/day, p<0.005 versus control): statistically significant protective effect
